According to US20130303507A1 (Novartis AG, priority 2011, published 2013):

Biological target: Cdk9/cyclinT1 (Homo sapiens, UniProt P50750)
Experiment: Cdk9/cyclinT1 IMAP protocol (fluorescence polarization)
Conditions: IC-50, CDK9; lower limit of assay 0.0005 micromolar

Cdk9/cyclinT1, sequence (P50750 whole entry): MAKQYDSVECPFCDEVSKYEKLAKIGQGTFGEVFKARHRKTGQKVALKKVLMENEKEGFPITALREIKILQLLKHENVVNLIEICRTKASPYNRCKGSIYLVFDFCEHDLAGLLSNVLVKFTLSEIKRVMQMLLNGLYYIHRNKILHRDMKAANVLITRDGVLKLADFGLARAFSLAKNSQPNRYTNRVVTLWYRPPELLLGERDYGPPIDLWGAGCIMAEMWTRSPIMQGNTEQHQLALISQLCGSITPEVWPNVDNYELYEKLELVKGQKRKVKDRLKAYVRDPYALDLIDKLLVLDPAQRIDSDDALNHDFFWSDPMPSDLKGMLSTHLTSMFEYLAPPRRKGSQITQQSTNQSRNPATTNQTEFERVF
Cdk9/cyclinT1, sequence (O60563 whole entry partner): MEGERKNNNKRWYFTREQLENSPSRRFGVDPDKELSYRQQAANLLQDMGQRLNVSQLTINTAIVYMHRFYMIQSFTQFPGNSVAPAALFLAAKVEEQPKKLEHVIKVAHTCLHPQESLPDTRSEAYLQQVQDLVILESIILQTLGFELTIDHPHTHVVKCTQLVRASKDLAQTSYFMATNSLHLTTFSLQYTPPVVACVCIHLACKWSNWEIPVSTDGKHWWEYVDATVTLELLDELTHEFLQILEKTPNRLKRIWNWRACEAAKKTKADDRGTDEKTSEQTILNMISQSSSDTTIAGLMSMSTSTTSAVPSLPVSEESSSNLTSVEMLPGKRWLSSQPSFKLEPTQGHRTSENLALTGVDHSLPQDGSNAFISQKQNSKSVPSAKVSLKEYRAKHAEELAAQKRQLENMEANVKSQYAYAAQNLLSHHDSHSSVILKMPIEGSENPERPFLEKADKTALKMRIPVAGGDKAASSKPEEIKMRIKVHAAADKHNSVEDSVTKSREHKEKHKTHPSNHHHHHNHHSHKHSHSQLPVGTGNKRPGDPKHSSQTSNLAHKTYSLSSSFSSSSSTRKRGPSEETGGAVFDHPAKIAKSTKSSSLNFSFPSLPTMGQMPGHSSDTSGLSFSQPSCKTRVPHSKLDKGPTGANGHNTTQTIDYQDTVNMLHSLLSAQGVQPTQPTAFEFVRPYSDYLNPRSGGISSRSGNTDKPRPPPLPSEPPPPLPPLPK

Compound	IC50 [nM]
CO[C@@H]1CC[C@H](Nc2cc(-c3cccc(NCC4(C#N)CCOCC4)n3)c(Cl)cn2)C[C@H]1N [Compound 438, 4-(((2′-(((1S,3R,4R)-3-amino-4-methoxycyclohexyl)amino)-5′-chloro-[2,4′-bipyridin]-6-yl)amino)methyl)tetrahydro-2H-pyran-4-carbonitrile]	20
COC(=O)NC[C@H]1CC[C@H](Nc2cc(-c3cccc(NCC4(C#N)CCOCC4)n3)c(Cl)cn2)CC1 [Compound 497, methyl ((trans-4-((5′-chloro-6-(((4-cyanotetrahydro-2H-pyran-4-yl)methyl)amino)-[2,4′-bipyridin]-2′-yl)amino)cyclohexyl)methyl) carbamate]	< 0.5
COC[C@@H](C)N[C@H]1CC[C@H](Nc2cc(-c3cccc(NCC4(C#N)CC4)n3)c(F)cn2)CC1 [Compound 480, 1-(((5′-fluoro-2′-((trans-4-(((R)-1-methoxypropan-2-yl)amino)cyclohexyl)amino)-[2,4′-bipyridin]-6-yl)amino)methyl)cyclopropane-carbonitrile]	< 0.5
CC(C)N[C@@H]1CC[C@@H](Nc2cc(-c3cccc(NCC4(C#N)CCOCC4)n3)c(Cl)cn2)C1 (relative stereo) [Example 408]	0.6
COCC(=O)NC[C@H]1CC[C@H](Nc2cc(-c3cccc(NCC4(C#N)CCOCC4)n3)c(Cl)cn2)CC1 [Compound 498, N-((trans-4-((5′-chloro-6-(((4-cyanotetrahydro-2H-pyran-4-yl)methyl)amino)-[2,4′-bipyridin]-2′-yl)amino)cyclohexyl)methyl)-2-methoxyacetamide]	< 0.5
COC[C@H](C)N[C@H]1CC[C@H](Nc2cc(-c3ccc(F)c(NCC4CCOC(C)(C)C4)n3)c(Cl)cn2)CC1 (stereo partly drawn) [Compound 457, 5′-chloro-N6-((2,2-dimethyltetrahydro-2H-pyran-4-yl)methyl)-5-fluoro-N2′-(trans-4-(((S)-1-methoxypropan-2-yl)amino)cyclohexyl)-[2,4′-bipyridine]-2′,6-diamine]	1.6
COC[C@]1(O)CC[C@H](Nc2cc(-c3cccc(NCC4(C#N)CCOCC4)n3)c(Cl)cn2)CC1 [Compound 449, 4-(((5′-chloro-2′-((trans-4-hydroxy-4-(methoxymethyl)cyclohexyl)amino)-[2,4′-bipyridin]-6-yl)amino)methyl)tetrahydro-2H-pyran-4-carbonitrile]	5.5
N#CC1(COc2cncc(-c3cc(N[C@H]4CC[C@H](N)CC4)ncc3Cl)n2)CCOCC1 [Compound 511, 4-(((6-(2-((trans-4-aminocyclohexyl)amino)-5-chloropyridin-4-yl)pyrazin-2-yl)oxy)methyl)tetrahydro-2H-pyran-4-carbonitrile]	0.6
CCOC(=O)C(C)(C)NC[C@H]1CC[C@H](Nc2cc(-c3cccc(NCC4(C#N)CCOCC4)n3)c(Cl)cn2)CC1 [Compound 425, ethyl 2-(((trans-4-((5′-chloro-6-(((4-cyanotetrahydro-2H-pyran-4-yl)methyl)amino)-[2,4′-bipyridin]-2′-yl)amino)cyclohexyl)methyl)amino)-2-methylpropanoate]	1.1
CC1(CNc2nc(-c3cc(N[C@H]4CC[C@@H](N)CC4)ncc3Cl)ccc2F)CCOCC1 [Compound 466]	3.9
COC[C@@H](C)N[C@H]1CC[C@H](Nc2cc(-c3cncc(OCC4(C#N)CCOCC4)n3)c(Cl)cn2)CC1 [Compound 509, 4-(((6-(5-chloro-2-((trans-4-(((R)-1-methoxypropan-2-yl)amino)cyclohexyl)amino)pyridin-4-yl)pyrazin-2-yl)oxy)methyl)tetrahydro-2H-pyran-4-carbonitrile]	1.1
N#CC1(CNc2cccc(-c3cc(NCC4CCOCC4)ncc3Cl)n2)CCOCC1 [Compound 441, 4-(((5′-chloro-2′-(((tetrahydro-2H-pyran-4-yl)methyl)amino)-[2,4′-bipyridin]-6-yl)amino)methyl)tetrahydro-2H-pyran-4-carbonitrile]	3
N#CC1(CNc2cccc(-c3cc(N[C@H]4CC[C@H](NC[C@H]5CCCO5)CC4)ncc3F)n2)CCOCC1 [Compound 484, 4-(((5′-fluoro-2′-((trans-4-((((R)-tetrahydrofuran-2-yl)methyl)amino)cyclohexyl)amino)-[2,4′-bipyridin]-6-yl)amino)methyl)tetrahydro-2H-pyran-4-carbonitrile]	< 0.5
NC(=O)C1(CNc2cccc(-c3cc(N[C@H]4CC[C@H](N)CC4)ncc3F)n2)CC1 [Compound 487, 1-(((2′-((trans-4-aminocyclohexyl)amino)-5′-fluoro-[2,4′-bipyridin]-6-yl)amino)methyl)cyclopropane-carboxamide]	< 0.5
N#CC1(CNc2cccc(-c3cc(NC4CCNCC4)ncc3Cl)n2)CCOCC1 [Example 402]	4.8
COC[C@@H](C)N[C@H]1CC[C@H](Nc2cc(-c3nc(NCC4(C#N)CCOCC4)cnc3Cl)c(Cl)cn2)CC1 [Compound 506, 4-(((5-chloro-6-(5-chloro-2-((trans-4-(((R)-1-methoxypropan-2-yl)amino)cyclohexyl)amino)pyridin-4-yl)pyrazin-2-yl)amino)methyl)tetrahydro-2H-pyran-4-carbonitrile]	≤ 0.5
N#CC1(CNc2cccc(-c3cc(N[C@H]4CC[C@H](N)CC4)ncc3Cl)n2)CCOCC1 [Compound 464, 4-(((2′-((trans-4-aminocyclohexyl)amino)-5′-chloro-[2,4′-bipyridin]-6-yl)amino)methyl)tetrahydro-2H-pyran-4-carbonitrile]	< 0.5
COC[C@H](C)N[C@H]1CC[C@H](Nc2cc(-c3ccc(F)c(NCC4(C#N)CCOCC4)n3)c(Cl)cn2)CC1 [Compound 458, 4-(((5′-chloro-5-fluoro-2′-((trans-4-(((S)-1-methoxypropan-2-yl)amino)cyclohexyl)amino)-[2,4′-bipyridin]-6-yl)amino)methyl)tetrahydro-2H-pyran-4-carbonitrile]	< 0.5
CC(O)(C(=O)N[C@H]1CC[C@H](Nc2cc(-c3cccc(NCC4(C#N)CCOCC4)n3)c(Cl)cn2)CC1)C(F)(F)F (stereo partly drawn) [Compound 431, N-(trans-4-((5′-chloro-6-(((4-cyanotetrahydro-2H-pyran-4-yl)methyl)amino)-[2,4′-bipyridin]-2′-yl)amino)cyclohexyl)-3,3,3-trifluoro-2-hydroxy-2-methylpropanamide]	1.7
COCCN[C@H]1CC[C@H](Nc2cc(-c3cccc(NCC4(C#N)CC4)n3)c(F)cn2)CC1 [Compound 488, 1-(((5′-fluoro-2′-((trans-4-((2-methoxyethyl)amino)cyclohexyl)amino)-[2,4′-bipyridin]-6-yl)amino)methyl)cyclopropane-carbonitrile]	< 0.5
CO[C@@H]1C[C@@H](Nc2cc(-c3cccc(NCC4(C#N)CCOCC4)n3)c(Cl)cn2)CC[C@@H]1N (single isomer, unassigned) [Compound 435]	≤ 0.5
COC[C@H](C)N[C@H]1CC[C@H](Nc2cc(-c3cccc(NCC4(O)CCOCC4)n3)c(Cl)cn2)CC1 [Compound 451, 4-(((5′-chloro-2′-((trans-4-(((S)-1-methoxypropan-2-yl)amino)cyclohexyl)amino)-[2,4′-bipyridin]-6-yl)amino)methyl)tetrahydro-2H-pyran-4-ol]	7
N#CC1(CNc2cccc(-c3cc(N[C@H]4CC[C@H](CN)CC4)ncc3Cl)n2)CCOCC1 [Compound 493, 4-(((2′-((trans-4-(aminomethyl)cyclohexyl)amino)-5′-chloro-[2,4′-bipyridin]-6-yl)amino)methyl)tetrahydro-2H-pyran-4-carbonitrile]	< 0.5
CO[C@H]1CCN([C@H]2CC[C@@H](Nc3cc(-c4cccc(NCC5(C#N)CCOCC5)n4)c(Cl)cn3)CC2)C1 [Compound 476, 4-(((5′-chloro-2′-((cis-4-((S)-3-methoxypyrrolidin-1-yl)cyclohexyl)amino)-[2,4′-bipyridin]-6-yl)amino)methyl)tetrahydro-2H-pyran-4-carbonitrile]	5.4
COCC(C)(C)N[C@H]1CC[C@H](Nc2cc(-c3cccc(NCC4(C#N)CCOCC4)n3)c(Cl)cn2)CC1 [Compound 454, 4-(((5′-chloro-2′-((trans-4-((1-methoxy-2-methylpropan-2-yl)amino)cyclohexyl)amino)-[2,4′-bipyridin]-6-yl)amino)methyl)tetrahydro-2H-pyran-4-carbonitrile]	2
COCCNC(=O)[C@H]1CC[C@H](Nc2cc(-c3cccc(NCC4(C#N)CCOCC4)n3)c(Cl)cn2)CC1 [Compound 455, trans-4-((5′-chloro-6-(((4-cyanotetrahydro-2H-pyran-4-yl)methyl)amino)-[2,4′-bipyridin]-2′-yl)amino)-N-(2-methoxyethyl)cyclohexane-carboxamide]	0.8
C[C@@H]1CN([C@H]2CC[C@@H](Nc3cc(-c4cccc(NCC5(C#N)CCOCC5)n4)c(Cl)cn3)CC2)C[C@H](C)O1 [Compound 427, 4-(((5′-chloro-2′-((cis-4-((2S,6R)-2,6-dimethylmorpholino)cyclohexyl)amino)-[2,4′-bipyridin]-6-yl)amino)methyl)tetrahydro-2H-pyran-4-carbonitrile]	8.2
COC[C@H](C)N[C@H]1CC[C@H](Nc2cc(-c3ccc(F)c(NC[C@H]4CCOC(C)(C)C4)n3)c(Cl)cn2)CC1 [Compound 463, 5′-chloro-N6-(((S)-2,2-dimethyltetrahydro-2H-pyran-4-yl)methyl)-5-fluoro-N2′-(trans-4-(((S)-1-methoxypropan-2-yl)amino)cyclohexyl)-[2,4′-bipyridine]-2′,6-diamine]	1.9
COCCN[C@@H]1CC[C@@H](Nc2cc(-c3cccc(NCC4(C#N)CCOCC4)n3)c(Cl)cn2)C1 [Compound 409, 4-(((5′-chloro-2′-(((1R,3R)-3-((2-methoxyethyl)amino)cyclopentyl)amino)-[2,4′-bipyridin]-6-yl)amino)methyl)tetrahydro-2H-pyran-4-carbonitrile]	0.6
N#CC1(CNc2cccc(-c3cc(N[C@H]4CC[C@H](N5CCOCC5)CC4)ncc3Cl)n2)CCOCC1 [Compound 442, 4-(((5′-chloro-2′-((trans-4-morpholinocyclohexyl)amino)-[2,4′-bipyridin]-6-yl)amino)methyl)tetrahydro-2H-pyran-4-carbonitrile]	0.6
